From patent US20250041272A1, “COMPOSITIONS AND METHODS FOR TREATING CANCER VIA PTP1B INHIBITION” (priority 2021, published 2025)

How the values were obtained:
GEMM6 tumors = experiment: GEMM6 melanoma tumor model; assay type: in vivo
Description: Tumor implantation, treatment and harvest. For animal studies, 1*10^5 B16F10 luciferase-tagged melanoma cells, 1*10^6 GEMM6 melanoma cells or 2*10^6 LCC cells were implanted subcutaneously into C57BL/6J mice (randomized, both males and females, 000664 The Jackson laboratory). When indicated, mice received intraperitoneal injections 7 days after implantation with 100 μl of 5 mg/kg cisplatin (Tocris), 100 μl of 10 mg/kg BVT948 (Tocris) or 100 μl of 30 mg/kg of vemurafenib. […]
Immunohistochemistry analysis. Immunohistochemistry assay was carried out in formalin-fixed, paraffin-embedded 4 μm sections using primary antibodies against F4:80 (AbD Serotec), CD11b (Abcam), CD4 (eBioscience) or CD8a (eBioscience) on a Discovery Ultra Automated IHC staining system (Ventana). Sections were then imaged using a ScanScope XT microscope (Aperio) and quantified using Aperio software.

[1] = system: Stat1 phosphorylation and MyD88 in macrophages; experiment: Transwell co-culture of M1 induced macrophages with tumor cells plus inhibitors (Western blot, qRT-PCR); assay type: cell-based, mouse; settings: 24 hours
Description: Peritoneal macrophage isolation and culture. Peritoneal macrophages were done as described previously(65) from 8-week-old C57BL/6J mice (randomized, both male and female). PBS (Gibco) was injected in the mural peritoneal cavity to release the macrophages. After recovering, cells were centrifuged at 1200 rpm for 5 minutes, resuspended in DMEM high glucose, 10% FBS, 1% penicillin-streptomycin (Gibco) and plated. 2 hours after the last step, cells were washed with PBS and maintained in DMEM/F12 supplemented with 10% FBS, 1% penicillin-streptomycin and 20 ng/ml of M-CSF (Prospec) for 2 days. Macrophages were treated for 24 hours with 50 ng/ml LPS (Sigma Millipore), 100 ng/ml IFNγ (BioLegend), 300 ng/ml PAM3CSK4 (InvivoGen), 107 cells/ml heat killed Listeria Monocytogenes (HKLM) (InvivoGen), 100 ng/ml Flagellin Salmonella typhimurium standard (InvivoGen), 10 ng/ml FSL1 (InvivoGen), 2.5 ug/ml ssRNA40 (InvivoGen), 2.5 ug/ml CL 075 (Tocris), 5 μM ODN1826, 50 μM Fludarabine (SelleckChem), 50 nM Momelotinib (SelleckChem), 5 μM BVT948 (Sigma Millipore), 200 μM PTP1b inhibitor III (Santa Cruz Biotechnology Inc.), 5 μM NSC87877 (Santa Cruz Biotechnology Inc.), 50 μM PTP1b inhibitor (Cayman), 1 mM PTP Inhibitor IV (Santa Cruz Biotechnology Inc.), 1 μM TSC401, 300 nM UNC2371 (SelleckChem), 300 nM BMS777607 (SelleckChem), 300 nM LDC1267 (SelleckChem) 1.5 μg/ml recombinant Pros1 (R&D systems), 200 ng/ml recombinant Gas6 (R&D systems) or 10-500 μM Cisplatin (Tocris). All components were added as described in the text. Cell culture. B16F10 (CRL-6475, ATCC), Lewis lung carcinoma (LLC) (CRL-1642, ATCC), KPC2713 (Yuliya Pylayeva-Gupta laboratory, UNC) and MDA-MB-231 (HTB-26, ATCC) were cultured in DMEM high glucose supplemented with 10% FBS, 1% penicillin-streptomycin (Gibco). […]

[2] = system: macrophage M1 associated gene expression; experiment: Cisplatin treated transwell co-culture of macrophages and B16F10 cells, qRT-PCR; assay type: cell-based, mouse
Description: Peritoneal macrophage isolation and culture. Peritoneal macrophages were done as described previously(65) from 8-week-old C57BL/6J mice (randomized, both male and female). PBS (Gibco) was injected in the mural peritoneal cavity to release the macrophages. After recovering, cells were centrifuged at 1200 rpm for 5 minutes, resuspended in DMEM high glucose, 10% FBS, 1% penicillin-streptomycin (Gibco) and plated. 2 hours after the last step, cells were washed with PBS and maintained in DMEM/F12 supplemented with 10% FBS, 1% penicillin-streptomycin and 20 ng/ml of M-CSF (Prospec) for 2 days. Macrophages were treated for 24 hours with 50 ng/ml LPS (Sigma Millipore), 100 ng/ml IFNγ (BioLegend), 300 ng/ml PAM3CSK4 (InvivoGen), 107 cells/ml heat killed Listeria Monocytogenes (HKLM) (InvivoGen), 100 ng/ml Flagellin Salmonella typhimurium standard (InvivoGen), 10 ng/ml FSL1 (InvivoGen), 2.5 ug/ml ssRNA40 (InvivoGen), 2.5 ug/ml CL 075 (Tocris), 5 μM ODN1826, 50 μM Fludarabine (SelleckChem), 50 nM Momelotinib (SelleckChem), 5 μM BVT948 (Sigma Millipore), 200 μM PTP1b inhibitor III (Santa Cruz Biotechnology Inc.), 5 μM NSC87877 (Santa Cruz Biotechnology Inc.), 50 μM PTP1b inhibitor (Cayman), 1 mM PTP Inhibitor IV (Santa Cruz Biotechnology Inc.), 1 μM TSC401, 300 nM UNC2371 (SelleckChem), 300 nM BMS777607 (SelleckChem), 300 nM LDC1267 (SelleckChem) 1.5 μg/ml recombinant Pros1 (R&D systems), 200 ng/ml recombinant Gas6 (R&D systems) or 10-500 μM Cisplatin (Tocris). All components were added as described in the text. Cell culture. B16F10 (CRL-6475, ATCC), Lewis lung carcinoma (LLC) (CRL-1642, ATCC), KPC2713 (Yuliya Pylayeva-Gupta laboratory, UNC) and MDA-MB-231 (HTB-26, ATCC) were cultured in DMEM high glucose supplemented with 10% FBS, 1% penicillin-streptomycin (Gibco). GEMM6 (Dr. Alisha Holtzhausen, UNC), KPPC4662 (Dr. Yuliya Pylayeva-Gupta laboratory, UNC), KPPC4548 (Yuliya Pylayeva-Gupta laboratory, UNC) and E0771 (CRL-3461, ATCC) were maintained in RPMI 1640 supplemented with […], 1% penicillin/streptomycin (Gibco) while PyMT cells were cultured in Ham's F-12K with 10% FBS, 1% penicillin-streptomycin (Gibco). Transwell assays were performed in 0.4 μm polyester membrane insert culture plates (Corning). 500,000 cells of each line were plated per well in DMEM/F12 supplemented with 10% FBS, 1% penicillin-streptomycin and 20 ng/ml of M-CSF for culture with mouse macrophages. SC cells (CRL-9855, ATCC) were cultured in IMDM with 10% FBS and 1% penicillin-streptomycin (Gibco). In transwell experiments with the SC cell line, cancer cells were also resuspended in IMDM media.
qRT-PCR. RNA was isolated using the RNeasy Plus Mini Kit (Quiagen) and cDNA was prepared using the Reverse Transcription System (Promega) with one-hour reverse transcription process. qRT-PCR was done using the PowerUp™ SYBR™ Green Master Mix (Applied Biosystems) on a QuantStudio Pro Real-time PCR system (Applied Biosystems) with a 95° C. pretreatment of 10 min, 50 cycles of 95° C., 10 sec and 60° C., 1 min and melt curve at the end. Analysis was performed with the 2^−ΔΔCT method(136).

[3] = system: MyD88 protein in macrophages; experiment: Immunofluorescent staining of M1 macrophages cultured in B16F10 conditioned medium; assay type: cell-based, mouse; settings: 24 hours
Description: Immunofluorescence staining and quantitation. After treatments, mouse macrophages were fixed with 4% formaldehyde (Electron Microscopy Sciences) and permeabilized with acetone (Fisher scientific). Samples were blocked using BlockAid blocking solution (Thermofisher scientific), were incubated with primary antibodies to MyD88 (Cell signaling), CD86 (Biolegend) and total STAT1 (Cell signaling) and Alexa Fluor 488-labeled secondary antibody (LifeTech) and were mounted with SlowFade Gold Antifade Mountant with DAPI (Invitrogen). Images were taken with using a BZ-X810 all-in-one fluorescence microscope (Keyence). Fluorescence intensity was measured with BZ-X800 software while colocalization was analyzed using ImageJ software with JACoP plugin (NIH)

[4] = BVT948 monotherapy, treatment from palpable tumors (50 mm^3), 8 mice per arm

BVT948
decrease in GEMM6 tumor growth, combination (GEMM6 tumors; BVT948 in combination with Vemurafenib): roughly 50% | tumor viability (H&E staining) (GEMM6 tumors; BVT948 monotherapy, GEMM6 tumors): not significantly changed | mice completely regressing and immune to rechallenge 1 month later (GEMM6 tumors; [4]): 3/8 | mice showing reductions in tumor growth (GEMM6 tumors; [4]): 6/8 | mice that died (most likely drug toxicity or autoimmune response) (GEMM6 tumors; [4]): 2/8 | GEMM6 tumor growth, monotherapy vs vehicle (GEMM6 tumors; larger tumors (200 mm^3), BVT948 10 mg/kg or Vemurafenib 30 mg/kg intraperitoneal): did not significantly reduce | Stat1 phosphorylation at Tyrosine 701 and Serine 727 [1]: increased | macrophage pro-inflammatory gene expression, PTP1b inhibition in combination with Cisplatin ([2]; BVT948 with Cisplatin 50 μM to 500 μM, wildtype macrophages with B16F10 cells): able to restore macrophage pro-inflammatory gene expression, in a dose dependent manner | M1 gene expression in MyD88 knockout macrophages ([2]; increasing Cisplatin, with or without BVT948): Neither increasing concentrations of Cisplatin, nor PTP1 b inhibition, were able to restore M1 gene expression | MyD88 protein level and localization [3]: increased MyD88
